Measurements taken from patent publication US6958345B2, “2-hydroxymethylcyclopropylidene methylpurines and -pyrimidines as antiviral agents” (The Regents of the University of Michigan, priority 1997, dated 2005).

How the values were obtained:
HCMV = HCMV yield reduction assay in HFF cells; type: cell-based, Human CMV (HCMV); conditions: footnote says IC90
Experimental: Virological procedures. Stock HCMV was prepared by infecting HFF cells at a multiplicity of infection (m.o.i.) of <0.01 plaque-forming units (p.f.u.) per cell. Cell growth medium was changed every four days until cytopathology was evident in all cells (approximately 21 days). Supernatant fluids were retained as the virus stock. High titer HSV-1 stocks were prepared by infecting KB cells at an m.o.i. of <0.1 as detailed previously. Turk, S. R., et al., Antimicrob. Agents Chemother. 31:544-550 (1987). Virus titers were determined using monolayer cultures of HFF cells for HCMV and monolayer cultures of BSC-1 cells for HSV-1 as described earlier. Prichard, M. N., et al., J. Virol. Methods 28:101-106 (1990). Briefly, HFF or BSC-1 cells were planted as described above in 96-well cluster dishes and incubated overnight at 37° C. in a humidified 3% CO297% air atmosphere. The next day cultures were inoculated with HCMV or HSV-1 and serially diluted 1:3 across the remaining eleven columns of the 96-well plate. Cultures were incubated at 37° C. for 2 hr to permit virus adsorption and then virus inoculum was replaced with 0.2 mL of fresh medium. Cultures were incubated for seven days for HCMV, two or three days for HSV-1, medium was removed, and the cell sheets were stained with 0.1% crystal violet in 20% methanol. Plaques were enumerated under 20-fold magnification in wells having the dilution which gave 5 to 20 plaques per well. Virus titers were calculated according to the following Formula: Titer (p.f.u./mL)=number of plaques×5×3^n; where n represents the nth dilution of the virus used to infect the well in which plaques were enumerated.
The effect of compounds on the replication of HCMV also was measured using a yield reduction assay. HFF cells were planted as described above in 96-well cluster dishes, incubated overnight, medium removed and the cultures were inoculated with HCMV at a m.o.i. of 0.5 to 1 p.f.u. per cell as reported elsewhere. After virus adsorption, inoculum was replaced with 0.2 mL of fresh medium containing test compounds. The first row of 12 wells was left undisturbed and served as virus controls. Each well in the second row received an additional 0.1 mL of medium with test compound at three times the desired final concentration. The contents of the 12 wells were mixed by repeated pipetting and then serially diluted 1:3 along the remaining wells. In this manner, six compounds could be tested in duplicate on a single plate with concentrations from 100 μM to 0.14 μM. Plates were incubated at 37° C. for seven days, subjected to one cycle of freezing and thawing; aliquots from each of the eight wells of a given column were transferred to the first column of a fresh 96-well monolayer culture of HFF cells. Contents were mixed and serially diluted 1:3 across the remaining eleven columns of the secondary plate. Each column of the original primary plate was diluted across a separate plate in this manner. Cultures were incubated, plaques were enumerated, and titers calculated as described above.
Data Analysis. Dose-response relationships were constructed by linearly regressing the percent inhibition of parameters derived in the preceding sections against log drug concentrations. Fifty-percent inhibitory (IC50) concentrations were calculated from the regression lines. Samples containing positive controls (acyclovir for HSV-1, ganciclovir for HCMV, and 2-acetylpyridine thiosemicarbazone for cytotoxicity) were used in all assays.

HHV-6 = HHV-6 ELISA in HSB-2 cells; type: cell-based, human herpes virus 6 (HHV 6)
Experimental: (c) HHV-6. In this case, enzyme-linked immunosorbent assay (ELISA) was performed in covalent amine plates (Costar, Cambridge, Mass.). The plates were activated by the addition of a homobifunctional crosslinking agent, bis(sulfosuccinimidyl) suberate, which was dissolved at 1 mg/mL in 30 mL of phosphate buffered saline (PBS: 137 mM NaCl, 2.7 mM KCl, 4.3 mM Na2HPO4, 1.4 mM KH2PO4, pH 7.4) and 300 μL of the crosslinker was added to each well in the covalent plate. The crosslinker reacted with the amine function on the plate for 30 min at room temperature. The byproduct, sodium N-hydroxysuccinimide sulfite, was removed by decanting and washing the plate twice with PBS. Samples consisting of 150 μl of mixed suspended HSB2 cells from the original drug-treated plate were solubilized in an equal volume of 10% Triton X-100 in coating buffer (15 mM Na2CO3, […] NaHCO3, pH 9.6). The plate was covered and then incubated for 1 h at 37° C. in a 5% CO2 atmosphere. These binding conditions facilitated covalent attachment of the antigen to the free end of the crosslinker.
After covalent binding, the antigen solution was decanted and the plate was washed six times in HEPES buffered saline (Shipman, C., Jr., Proc. Soc. Exp. Biol. 130:305-310 (1969)) with 0.05% Tween 20 (HBS-T ), soaking for three min for each wash. […] Absorbance in each well was determined at 450/570 nm.

Nc1ncnc2c1ncn2C=C1CC1CO (stereo not drawn) [1 (B = adenine), Example 5, syn-N^9-(2-hydroxymethylcyclopropylidenemethyl)adenine]
IC90 (HCMV): 1500 nM
IC50 (HHV-6): 3000 nM
